The values below come from paper PMC3875372 (Biochemistry, 2013).

The test system of data set [1] is ecDHFR. Conditions: cited from earlier work.
Data set [2] relates to modified DHFRs (biphenyl-phenylalanines at position 115). The data set can be described thus: Inhibition of the modified DHFRs. Conditions: all four DHFRs modified at position 115. Format: biochemical, E. coli.
The conditions of data set [3]: standards; 2-aminopyridine λex 295 nm, anthracene λex 340 nm; cited from earlier work.

L-(7-hydroxycoumarin-4-yl)ethylglycine: the “rate of NADPH consumption relative to wild type” value in data set [1] (position 115 of ecDHFR) is reported as “about 25%”.
For the compound `CN(Cc1cnc2nc(N)nc(N)c2n1)c1ccc(C(=O)N[C@@H](CCC(=O)O)C(=O)O)cc1` [methotrexate], in data set [2], the “inhibition of the modified enzymes compared with wild type” value is on record as “about the same extent as wild type”.
As for 4-biphenyl-L-phenylalanine, the “effect on the rate at which ecDHFR consumed NADPH” value in data set [1] (replacement of Ile115, in the presence of dihydrofolate) was “no significant effect”.
Turning to `c1ccc2cc3ccccc3cc2c1` [anthracene], the “ΦF of quantum yield standard” value in data set [3] is given as 0.27.
Regarding `Nc1ccccn1` [2-aminopyridine], in data set [3], the “ΦF of quantum yield standard” value is 0.60.
